These results are taken from patent US20160220500A1, “Targeting Intracellular Copper Ions for Inhibiting Angiogenesis Using Nanoparticles of Ternary Inorganic Metal Sulfide M1M2S4 (M1, independently, is Mg, Ca, Mn, Fe, or Zn; M2 = Mo or W) Compounds to Treat Metastatic Cancer” (KENT STATE UNIVERSITY, priority 2014, published 2016).

This assay deals with HuVEC cells. Briefly: VEGF-induced tube formation assay. It is filed as cell-based, human. To be noted: VEGF (50 ng/ml), sulforaphane 5 uM. The procedure:
The tube formation assay is an in vitro a model of angiogenesis commonly used to measure the ability of endothelial cells to form “tubes” (i.e. three-dimensional structures that resemble vessel walls). Tube formation studies were conducted in a 96-well plate format using an in vitro angiogenesis assay kit from Trevigen Inc. (Trevigen, Gaithersburg, Md.). Prior to tube formation assay, Huvec cells were starved overnight in EGM-2 basal medium in the culture dish. […] The cells were harvested and counted, and a single cell suspension at 1×10^6 cells/ml was prepared. […] Tube formation was visualized using a fluorescence microscope (485 nm excitation/520 nm emission) at 200× total magnification. Numbers of branch points were counted for each of six randomly chosen fields, and then averaged for each condition. […] Statistical significance was determined using student t-test.
The tube formation was quantified and expressed as mean number of branching points per viewing field as shown in FIG. 5F for the high dose treatment using nanoparticles of ZnMoS4.
The Huvec cells were harvested, counted, and diluted in EBM-2 basal medium in the presence (Panels B-E) or absence (Panels A) of VEGF (50 ng/ml) and ZnMoS4 NPs at 50 ng/ml (Panel C) and 10 ng/ml (Panel D). […] F. Quantitative assessment of the tube formation was done by counting the average number of branch points per viewing field. […]

As to `C[S+]([O-])CCCCN=C=S` (stereo not shown) [sulforaphane], the tube formation result is “prevented tube formation”.
